Literature values in US20130317456A1, “Transdermal Delivery Systems” (Durect Corporation, priority 2006, published 2013).

Conditions: octanol/water partition coefficient

SMILES | log P
Cc1cccc(C)c1NC(=O)C1CCCCN1C (centres unmarked) [Mepivacaine] | around 1.95
CCCN1CCCC[C@H]1C(=O)Nc1c(C)cccc1C [Ropivacaine] | around 2.9
